This assay concerns the target T1, Neutrophil elastase (Homo sapiens, UniProt P08246).
T1 sequence (P08246 whole entry): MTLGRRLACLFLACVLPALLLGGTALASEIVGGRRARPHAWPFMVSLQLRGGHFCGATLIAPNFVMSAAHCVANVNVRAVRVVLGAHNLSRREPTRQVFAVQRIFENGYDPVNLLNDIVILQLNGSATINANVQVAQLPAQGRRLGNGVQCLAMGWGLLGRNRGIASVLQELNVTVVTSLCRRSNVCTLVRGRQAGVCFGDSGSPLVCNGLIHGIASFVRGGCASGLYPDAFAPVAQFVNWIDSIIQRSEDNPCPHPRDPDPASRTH
As to the kind of experiment: Compound was evaluated In vitro for inhibition of human neutrophil elastase.

Residues, ends and D or L forms follow the SMILES beside them. *: point of attachment. Dansyl = CN(C)c1cccc2c(S(=O)(=O)*)cccc12; Cbz = O=C(OCc1ccccc1)*; CF3 = FC(F)(F)*

Consider `CCOC(=O)C(F)(F)C(NC(=O)C1CCCN1C(=O)C(C)NC(=O)C(C)NC(=O)OC(C)(C)C)C(C)C` (centres undefined), for which the Ki (commonly a measure of affinity in units of concentration, obtained from inhibition or displacement) was over 300000 nM. In the case of `CC(C)[C@H](NC(=O)[C@@H]1CCCN1C(=O)[C@H](C)NC(=O)[C@H](C)NCC(=O)OC(C)(C)C)C(=O)C(F)(F)F` it was 44 nM; in that of `CC(C)[C@H](NC(=O)[C@@H]1CCCN1C(=O)[C@H](C)NC(=O)[C@H](C)NC(=O)OCc1ccccc1)C(=O)C(F)(F)F` (Cbz-AAPV-CF3), 1 nM. In turn, `CC(C)[C@H](NC(=O)[C@@H]1CCCN1C(=O)[C@H](C)NC(=O)[C@H](C)NS(=O)(=O)c1cccc2c(N(C)C)cccc12)C(=O)C(F)(F)F` (Dansyl-AAPV-CF3) showed a Ki of 10 nM. Against the preceding compound, the Ki is about 10-fold higher.

The values above are taken from ChEMBL document CHEMBL1126209, “Synthesis of a peptidyl 2,2-difluoro-3-aminopropionate” (Bioorg Med Chem Lett, 1992).
